Results published in the supplement of paper PMC10307832.

How the values were obtained:
Assay in all cases: relative viability (nuclei count vs DMSO), 5 days (fraction); higher = more cells survive
Entinostat + Vorinostat = compound: Nc1ccccc1NC(=O)c1ccc(CNC(=O)OCc2cccnc2)cc1 [Entinostat] + O=C(CCCCCCC(=O)Nc1ccccc1)NO [Vorinostat] (partner 1 µM)
Procedure, shortened: (§1)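 Five library-drug doses in √10 steps were combined with a fixed anchor-drug dose, or a single drug was given alone, by pin tool to lung cancer cell lines in 1536-well plates the day after seeding. Nuclei were stained and counted after 5 days. Relative viability is the nuclei count in treated wells over that in vehicle wells, taken as the median of duplicate plates.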

SGI-1776 + Tozasertib = compound: CN1CCC(CNc2ccc3ncc(-c4cccc(OC(F)(F)F)c4)n3n2)CC1 [SGI-1776] + Cc1cc(Nc2cc(N3CCN(C)CC3)nc(Sc3ccc(NC(=O)C4CC4)cc3)n2)n[nH]1 [Tozasertib] (partner 0.1 µM)
Procedure, shortened: as §1

[1] = compound: C1COCCN1C2=NC(=NC3=C2OC4=C3C=CC=N4)C5=CC(=CC=C5)NC(=O)C6=CN=C(C=C6)N + CC(C)C[C@H](NC(=O)[C@H](Cc1ccccc1)NC(=O)c1cnccn1)B(O)O [Bortezomib] (partner 0.002 µM)
Procedure, shortened: as §1

[2] = compound: C1COCCN1C2=NC(=NC3=C2OC4=C3C=CC=N4)C5=CC(=CC=C5)NC(=O)C6=CN=C(C=C6)N + COc1cc2c(Oc3ccc(NC(=O)C4(C(=O)Nc5ccc(F)cc5)CC4)cc3F)ccnc2cc1OCCCN1CCOCC1 [Foretinib] (partner 0.25 µM)
Procedure, shortened: as §1

Row | Cell Line | relative viability (Entinostat + Vorinostat; first compound 0.02 µM) | relative viability (Entinostat + Vorinostat; first compound 0.06325 µM) | relative viability (Entinostat + Vorinostat; first compound 0.2 µM) | relative viability (Entinostat + Vorinostat; first compound 0.6325 µM) | relative viability (Entinostat + Vorinostat; first compound 2 µM) | relative viability (SGI-1776 + Tozasertib; first compound 0.08 µM) | relative viability (SGI-1776 + Tozasertib; first compound 0.8 µM) | relative viability (SGI-1776 + Tozasertib; first compound 2.53 µM) | relative viability (SGI-1776 + Tozasertib; first compound 8 µM) | relative viability ([1]; first compound 0.02 µM) | relative viability ([1]; first compound 0.06325 µM) | relative viability ([1]; first compound 0.2 µM) | relative viability ([1]; first compound 0.6325 µM) | relative viability ([1]; first compound 2 µM) | relative viability ([2]; first compound 0.02 µM) | relative viability ([2]; first compound 0.06325 µM) | relative viability ([2]; first compound 0.2 µM) | relative viability ([2]; first compound 0.6325 µM) | relative viability ([2]; first compound 2 µM)
1 | 201T | 0.995 | 1.07 | 0.95 | 0.691 | 0.491 | 0.982 | 0.901 | 0.549 | 0.366 | 0.994 | 1.1 | 1.02 | 1.11 | 0.97 | 1.31 | 1.05 | 1.1 | 1.1 | 1.09
2 | A549 |  |  |  |  |  |  |  |  |  |  |  |  |  |  | 1.05 | 0.987 | 0.988 | 1.06 | 0.225
3 | A-427 | 0.87 | 0.875 | 0.864 | 0.781 | 0.617 | 0.19 | 0.212 | 0.141 | 0.158 | 0.981 | 1.02 | 0.945 | 0.91 | 0.652 | 1.11 | 1.28 | 1.16 | 0.855 | 0.676
4 | ABC-1 | 1.34 | 1.35 | 0.854 | 0.759 | 0.511 | 0.175 | 0.134 | 0.173 | 0.175 | 0.311 | 0.315 | 0.288 | 0.298 | 0.302 | 1.09 | 1.07 | 0.996 | 1.04 | 0.884
5 | BEN | 0.632 | 0.571 | 0.553 | 0.459 | 0.384 | 0.523 | 0.599 | 0.62 | 0.453 | 0.961 | 0.738 | 0.764 | 0.761 | 0.711 | 0.681 | 0.609 | 0.594 | 0.451 | 0.72
6 | CAL-12T | 0.606 | 0.892 | 0.734 | 0.52 | 0.423 | 0.3 | 0.216 | 0.234 | 0.205 | 0.935 | 0.98 | 0.861 | 0.871 | 0.84 | 1.12 | 1.49 | 1.19 | 1.21 | 0.941
7 | COR-L23 | 0.368 | 0.503 | 0.423 | 0.208 | 0.238 | 0.204 | 0.156 | 0.115 | 0.11 | 1.13 | 1.18 | 1.08 | 1.13 | 0.474 | 0.97 | 1.02 | 0.99 | 1.1 | 0.692
8 | COR-L 105 | 0.993 | 0.986 | 0.851 | 0.541 | 0.356 | 0.334 | 0.286 | 0.352 | 0.318 | 0.655 | 0.872 | 0.657 | 0.66 | 0.474 | 0.915 | 1.28 | 0.764 | 0.969 | 0.777
9 | Calu-6 |  |  |  |  |  |  |  |  |  | 1.1 | 1.18 | 0.919 | 0.957 | 0.806 | 1.12 | 0.912 | 0.987 | 0.851 | 0.648
10 | ChaGo-K-1 | 0.765 | 0.763 | 0.768 | 0.626 | 0.464 | 0.242 | 0.22 | 0.223 | 0.177 | 0.938 | 1.01 | 0.568 | 1.12 | 0.746 | 0.971 | 1.04 | 0.955 | 0.832 | 0.582
11 | EBC-1 |  |  |  |  |  |  |  |  |  | 0.541 | 0.521 | 0.431 | 0.455 | 0.417 | 0.115 | 0.0996 | 0.111 | 0.102 | 0.0879
12 | EKVX | 0.801 | 0.654 | 0.65 | 0.467 | 0.42 | 0.4 | 0.398 | 0.307 | 0.235 | 1.09 | 1.19 | 1.02 | 1.11 | 0.585 | 0.97 | 1.01 | 0.773 | 0.751 | 0.339
13 | EMC-BAC-2 | 0.969 | 0.433 | 0.6 | 0.331 | 0.218 | 0.285 | 0.257 | 0.212 | 0.224 | 1.1 | 1.14 | 1.06 | 1 | 0.784 | 0.991 | 1.07 | 1.01 | 0.902 | 0.766
14 | EPLC-272H | 0.483 | 0.397 | 0.33 | 0.236 | 0.139 | 0.326 | 0.194 | 0.194 | 0.175 | 0.965 | 0.994 | 0.816 | 0.931 | 0.558 | 0.648 | 0.776 | 0.66 | 0.542 | 0.476
15 | H3255 | 0.902 | 0.303 | 0.65 | 0.483 | 0.37 | 0.574 | 0.825 | 0.625 | 0.277 | 0.622 | 0.718 | 0.687 | 0.805 | 0.611 | 0.985 | 0.97 | 0.865 | 0.754 | 0.718
16 | HARA | 0.541 | 0.482 | 0.329 | 0.324 | 0.182 | 0.18 | 0.101 | 0.0992 | 0.0856 | 1.14 | 1.35 | 1.24 | 1 | 0.875 | 0.953 | 1.11 | 1.09 | 0.882 | 0.528
17 | HCC-15 | 0.81 | 0.807 | 0.636 | 0.51 | 0.266 | 0.386 | 0.312 | 0.118 | 0.112 | 1.03 | 1.04 | 0.994 | 1.05 | 0.677 | 1.05 | 1.15 | 1.06 | 0.947 | 0.677
18 | HCC-44 | 1.08 | 0.976 | 0.938 | 0.879 | 0.653 | 0.904 | 0.491 | 0.336 | 0.246 | 0.933 | 1 | 0.849 | 0.943 | 0.726 |  |  |  |  | 
19 | HCC-78 | 0.44 | 0.435 | 0.441 | 0.33 | 0.281 | 0.466 | 0.318 | 0.41 | 0.308 | 0.394 | 0.61 | 0.555 | 0.444 | 0.497 | 0.466 | 0.553 | 0.587 | 0.531 | 0.425
